Measurements published in US10526371B2, “Hydrogel-forming peptides” (Universiteit Gent, priority 2015, dated 2020).

Experiments:
[1] = Peptide self-assembly / gelation conditions; type: physicochemical; conditions: TFA salt
Procedure: Peptide self-assembly was analyzed in i) a PBS solution (10 mM), ii) a PBS/mQ mixture (1:1 v:v, mQ water with a resistivity of […]) or iii) a NaCl aqueous solution (150 mM). The TFA salt of reference peptide SEQ NO. 23 (1 mg) was dissolved in 50 μl mQ water, followed by the addition of 50 μl PBS solution. This mixture was left to rest overnight, resulting in a 1% w/v hydrogel. The TFA salt of mixed α/β-peptides SEQ ID NO 1 and SEQ ID NO 2 (2 mg) was dissolved in mQ (100 μL) and PBS/mQ mixture (100 μL), respectively. […] The TFA salt of mixed α/β-peptide SEQ ID NO 3 (3 mg) was dissolved in PBS (100 μL) to probe gelation. All self-assembled gels were analyzed by circular dichroism (CD) and Fourier transform infrared (FT-IR) spectroscopy, as well as cryogenic transmission electron microscopy (Cryo-TEM).
(SEQ ID NO:22 (=10-mer)), 100 μl mQ water was added to 2 mg of TFA-salt of pure peptide, then vortexed and sonicated. As a result, a transparent self-supporting gel was formed immediately. A gelation condition of 2 w/v % in mQ water was found.
for H-Fβ^2hFEFQFK-NH2 (SEQ ID NO:19), 100 μl of PBS was added to 2 mg of TFA-salt of pure peptide, then vortexed and sonicated. After overnight resting, a self-supporting gel was formed. A gelation condition of 2 w/v % in PBS was determined.

elastase [2] = assay: Enzymatic degradation study of peptides in non-gelating conditions; type: in vitro ADME; conditions: peptide 350 μM, elastase 60 μM, 37° C.
Procedure: The following biodegradation experiments were performed in order to assess biostability of peptides of the invention toward elastase, a prominent enzyme present in the subcutaneous compartment.
The following buffer was used to assay the proteolytic stability of the peptides towards elastase: 10 mM PBS at pH 7.2. First, a stock solution of elastase (60 μM in 10 mM PBS) was prepared. Peptides SEQ ID NO 1, 2 and 3 and reference α-peptide SEQ ID NO 23 were subjected to the degradation study and prepared as a stock solution of 350 μM in mQ water (with a resistivity of […]). Enzymatic degradation was carried out by incubation of peptide (900 μL, 350 μM) with the enzyme (150 μL, 60 μM) at 37° C. for 7 days. To preclude any pH-dependent effects on the enzyme's activity, the pH value was kept at pH 6.9±0.5 in all degradation experiments.
The enzyme concentration was selected such that the reference α-peptide SEQ ID NO 23 was completely degraded in less than 1 hour. In case of the α-peptide SEQ ID NO 23, aliquots (70 μL) were periodically taken at 0 min, 5 min, 10 min, 15 min, 20 min and 30 min, while for the mixed α/β-peptides aliquots (70 μL) were taken at 0 min, 20 min, 30 min, 1 h, 2 h, 5 h, 1 day, 2 days, 3 days, 4 days, 5 days and 6 days. 5 μL of 25% AcOH in water (v/v) were added and the degradation was monitored by HPLC analysis. After just 30 min of exposure to elastase, the reference α-peptide SEQ ID NO 23 was completely degraded. The enzymatic degradation of mixed α/β-peptides SEQ ID NO 1, SEQ ID NO 2 and SEQ ID NO 3 was remarkably slower and lasted several days. Mixed α/β-peptides SEQ ID NO 1 and SEQ ID NO 2 were completely consumed after 6 days whilst mixed α/β-peptide SEQ ID NO 1, SEQ ID NO 3 was degraded after 3 days.

[3] = Erosion / general stability of hydrogel without enzyme (PBS on top); type: physicochemical
Procedure: (A). The peptide hydrogel (1 mL) was prepared in a 10 mL glass tube using the appropriate gelation conditions (see peptide self-assembly in example 2). After leaving the hydrogel to rest overnight the degradation evaluation was started. First, general stability (without the incubation of an enzyme) was evaluated for α-peptide SEQ ID NO 23: 3 mL of mQ water was gently placed on top of the hydrogel and erosion experiments were performed by placing 3 mL PBS solution (10 mM) on top of the hydrogel to assess the hydrogels macroscopic decay in time. […] After 24 hours there was a small loss in volume (0.1 mL) of the formed hydrogel and the aggregation remained visible at the hydrogel surface. The PBS fraction was recollected and measured as 3.1 mL, in agreement with the 0.1 mL volume loss of the hydrogel. After 4 days the hydrogel was completely disintegrated into opaque aggregated pieces sticking to the bottom of the glass tube. The collected solution was measured to be 3.8 mL.

elastase [4] = assay: Proteolytic stability of hydrogels (elastase solution on top of hydrogel); type: in vitro ADME; conditions: hydrogel, elastase 60 μM in 10 mM PBS on top
Procedure: (B) The proteolytic stability of the hydrogels was analyzed by placing an elastase solution (60 μM in 10 mM PBS) on top of the hydrogel. In all the stability experiments a total volume of 4 mL (gel+PBS solution with and without enzyme) was obtained. The addition of the enzyme solution on top of the hydrogel was set as the starting point of the gel-degradation experiments; B. At specific time-intervals (0 h, 24 h, 2 days, 3 days, 4 days, 5 days, 6 days, 7 days, 2 weeks, 3 weeks, etc.) the liquid portion on top of the hydrogel was removed using a pipette and the hydrogel's volume was estimated using following formula: VTotal−VLiquid portion=VHydrogel (1)
wherein VTotal is the total volume and remains at 4 mL and VLiquid portion is the volume measured of the liquid portion after each sampling interval. At each sampling interval the pH was also measured; C. A picture of the inverted glass tube, only containing the self-sustaining non-fluid-like hydrogel, was taken in order to assess the physical deformation of the hydrogel and volume-loss; D. The PBS, mQ or enzyme solution is gently replaced on top of the hydrogel using a pipette, allowing repetition of steps A-D. Between sampling-intervals the glass tubes were kept undisturbed at room temperature. The gel degradation time was defined as the period required for complete disintegration of the hydrogels into liquid under observation of the naked eye.
(C) In a next step, the stability and degradation profiles of the mixed α/β-hydrogels were investigated using this methodology. During the first hours after addition of the elastase to peptide SEQ ID NO 1 hydrogel, no apparent physical deformation was observed. The collected liquid portion (on top of the hydrogel) measured 3 mL (during the first 10 hours). […] In comparison to the α-peptide 1 hydrogel the degradation time of peptide SEQ ID NO 1 hydrogel was extended from 3.5 days to 5.5 days. However, the physical alteration of this hydrogel into an opaque structure was already observed after one day.

[5] = 3 mL PBS on top, after 24 hours

## H-FEFQFK-OH [SEQ ID NO 23, H-FEFQFK-OH, reference compound]
[1]; 50 μl mQ water + 50 μl PBS, rest overnight
  hydrogel concentration obtained: 1 % w/v
[1]; at its own gelation condition
  time of gelation (self-supporting gel formed): overnight
Elastase [2]; HPLC
  time to complete degradation by elastase: 30 min
Elastase [2]; enzyme concentration selected for this
  time to complete degradation by elastase: less than 1 hour
[3]; 1 mL hydrogel, 3 mL PBS 10 mM on top, after 2 hours
  hydrogel volume: 1 mL
[3]; [5]
  PBS fraction recollected: 3.1 mL
  loss in volume of hydrogel: 0.1 mL
[3]; 3 mL PBS on top, after 4 days
  collected solution: 3.8 mL
[3]; 3 mL PBS on top, no enzyme
  time to complete disintegration of hydrogel: 4 days
Elastase [4]
  time at which hydrogel changed into an opaque structure: 2 days
Elastase [4]; room temperature
  gel degradation time (hydrogel unstable/fluid-like): 3.5 days
